Data set [1] can be described thus: Solubility noted during patch-clamp concentration-response. To be noted: bath solution, 200 μM. Type of data set: physicochemical. Background: Patch clamp records ionic current or voltage across a cell membrane.
Data set [2] has as its target T1, rat KCa2.2a (UniProt P0DP23+P70604).
T1 construct: expressed in transfected cells; host or cells: HEK293
Briefly: Inside-out patch-clamp potentiation of KCa2.2a channels expressed in HEK293 cells. Type of data set: cell-based. To be noted: for Emax / activity / potency on KCa2.2a channels: HEK293; for Emax: current at −90 mV at maximal compound concentration normalized to 10 μM Ca2+, read-out: Emax on KCa2.2a channels (I/Imax); for EC50 / activity / potency on KCa2.2a channels: inside-out patch; for EC50: HEK293, 0.15 μM Ca2+, current at −90 mV, read-out: EC50 (mean ± SEM, μM) on potentiating KCa2.2a channels; for efficacy (Emax) on KCa2.2a channels: normalized to 10 μM Ca2+. Here is the method:
The impact of adding one substituent group at C4 of the cyclohexane moiety of CyPPA with either electron donating (OH (2a), NH2 (2b), CH2OH (2c), and OCH3 (2d)) or electron-withdrawing groups (F (2e) and NO2 (2f)) was explored. The potency of the newly synthesized compounds compared to the template CyPPA was measured via inside-out patch clamp electrophysiology recordings with KCa2.2a channels heterologously expressed in HEK293 cells (FIG. 1A). […] The responses induced by 10 μM Ca^2+ are considered the maximal currents of the KCa2.2a channels. To evaluate the efficacy (Emax) of compounds on KCa2.2a channels, the current amplitudes at −90 mV in response to the maximal concentration of compounds were normalized to that obtained at 10 μM Ca^2+ (I/Imax (%), FIG. 1C).
The effect of newly synthesized compounds on the KCa2.x/KCa3.1 channels was investigated as previously described (Nam, Y. W.; et al, Acta Physiol (Oxf) 2020, e13552; Nam, Y. W.; et al. Scientific reports 2018, 8 (1), 10749). Briefly, the rat KCa2.2a, human KCa2.1, human KCa2.3 or human KCa3.1 channels cDNA constructs were either generated in-house or through molecular cloning services (Genscript). The channel cDNAs, along with CaM and GFP, at a ratio of 7:4:2 (ORF ratios), were transfected into HEK293 cells by the calcium-phosphate method. KCa currents were recorded 1-2 days after transfection, with an Axon200B amplifier (Molecular Devices) at room temperature. The resistance of the patch electrodes ranged from 3-5 MΩ. The pipette solution contained (in mM): 140 KCl, 10 Hepes (pH 7.4), 1 MgSO4. The bath solution containing (in mM): 140 KCl, 10 Hepes (pH 7.2), 1 EGTA, 0.1 Dibromo-BAPTA, and 1 HEDTA was mixed with Ca^2+ to obtain the desired free Ca^2+ concentrations, calculated using the software by Chris Patton of Stanford University (https://somapp.ucdmc.ucdavis.edu/pharmacology/bers/maxchelator/webmaxc/webmaxcS.htm). The Ca^2+ concentrations were verified using a Ca^2+ calibration buffer kit (Thermo Fisher Scientific). Briefly, a standard curve was generated using the Ca^2+ buffers from the kit and a fluorescence Ca^2+ indicator. Then, the Ca^2+ concentrations of the bath solution were determined through interpolation on the standard curve.
High resistance seals (>1 GΩ) were formed before inside-out patches were obtained. The seal resistance of inside-out patches was >1 GΩ, when the intracellular face was initially exposed to a zero-Ca^2+ bath solution. Currents were recorded by repetitive 1-s-voltage ramps from −100 mV to +100 mV from a holding potential of 0 mV. The currents were filtered at 2 kHz and digitized at a sampling frequency of 10 kHz. At the end of experiment, the integrity of the patch was examined by switching the bath solution back to the zero-Ca^2+ buffer. Data from patches, which maintained the seal resistance (>1 GΩ) after solution changes, were used for further analysis.
To measure the effect of CyPPA (Alomone Labs) and newly synthesized compounds, the intracellular face was exposed to bath solutions with 0.15 μM Ca^2+. One minute after switching of bath solutions, ten sweeps with a 1-s interval were recorded at a series of concentrations of compound in the presence of 0.15 μM Ca^2+. The maximal KCa2.x/KCa3.1 current in response to 10 μM Ca^2+ was then recorded.
Patch-clamp recordings were analyzed using Clampfit 10.5 (Molecular Devices LLC) and concentration-response curves were analyzed in GraphPad Prism 9.0.2 (GraphPad Software Inc.). To construct the concentration-dependent potentiation of channel activities by compound, the current amplitudes at −90 mV in response to various concentrations of the compound were normalized to that obtained at a maximal concentration of compound. The normalized currents were plotted as a function of the concentrations of the compound. EC50 values and Hill coefficients were determined by fitting the data points to a standard concentration-response curve (Y=100/(1+(X/EC50)^−Hill)). […]

The target of a further data set is T2, human KCa2.3 channels (Homo sapiens, UniProt P0DP23+Q9UGI6).
T2 construct: expressed in transfected cells; host or cells: HEK293
To be noted: cited from earlier work.

The target in data set [3] is T1, rat KCa2.2a. To be noted: KCa2.2/KCa2.3 vs KCa2.1/KCa3.1; cited from earlier work.

“Also recorded” adds a separate entry of the source.

Take `Cc1cc(Nc2cc(C(=O)O)ccc2F)nc(-n2nc(C)cc2C)n1` [Compound 2v, 3-((2-(3,5-Dimethyl-1H-pyrazol-1-yl)-6-methylpyrimidin-4-yl)amino)-4-fluorobenzoic acid]: in data set [1], the “solubility” value is given as “limited solubility at 200 μM”. At rat KCa2.2a [2], the Emax came to 50 ± 5.78%; the EC50 – broadly, the concentration that produces a half-maximal response – worked out at 37.6 ± 3.66 µM; the “efficacy (Emax) on KCa2.2a channels” value was “reduced efficacy”.
Turning to `Cc1cc(NC2CCCCC2)nc(-n2nc(C)cc2C)n1` [CyPPA, N-cyclohexyl-2-(3,5-dimethyl-1H-pyrazol-1-yl)-6-methylpyrimidin-4-amine], the “potency on KCa2.3 compared to KCa2.2a channels, background statement” value at human KCa2.3 channels is “slightly but significantly higher potency on KCa2.3 channels than KCa2.2a channels”. Moreover, on rat KCa2.2a [2], the Emax worked out at 82.4 ± 4.91% and the EC50 was 7.48 ± 0.56 µM. At rat KCa2.2a [3], the “subtype selectivity, previously reported” value was “selectively potentiates KCa2.2a and KCa2.3, but not KCa2.1 and KCa3.1 channel subtypes; also recorded: potentiate the KCa2.2 and KCa2.3, but not the KCa2.1 and KCa3.1 channel subtypes”.
For the compound `Cc1cc(NC2CCC([N+](=O)[O-])CC2)nc(-n2nc(C)cc2C)n1` (stereo not shown) [Compound 2f, 2-(3,5-Dimethyl-1H-pyrazol-1-yl)-6-methyl-N-(4-nitrocyclohexyl)pyrimidin-4-amine], the EC50 on rat KCa2.2a [2] was > 100 µM.
On the same count and under the same terms, as for “N^1-(3-Chloro-4-(trifluoromethyl)phenyl)-6-(3,5-dimethyl-1H-pyrazol-1-yl)pyrimidine-2,4-diamine [Compound 3g]”, the figure is > 100 µM; as for “N^1-(2,5-Difluorophenyl)-6-(3,5-dimethyl-1H-pyrazol-1-yl)pyrimidine-2,4-diamine [Compound 3f]”, > 100 µM.
On to `Cc1cc(Nc2cc(Cl)ccc2F)nc(-c2coc(C)n2)n1` [Compound 6a, N-(5-Chloro-2-fluorophenyl)-6-methyl-2-(2-methyloxazol-4-yl)pyrimidin-4-amine], for which, on rat KCa2.2a [2], the “activity / potency on KCa2.2a channels” value was “lower potency than 2q”, the EC50 stood at 13.8 ± 1.68 µM and the “efficacy (Emax) on KCa2.2a channels” value is “retained their efficacy”.
With `Cc1cc(Nc2cccc(F)c2F)nc(-n2nc(C)cc2C)n1` [Compound 2m, N-(2,3-Difluorophenyl)-2-(3,5-dimethyl-1H-pyrazol-1-yl)-6-methyl-pyrimidin-4-amine], the EC50 at rat KCa2.2a [2] is 5.03 ± 0.59 µM.
As to “N^1-(4-Chloro-2-fluorophenyl)-6-(3,5-dimethyl-1H-pyrazol-1-yl)pyrimidine-2,4-diamine [Compound 3d]”, the EC50 on rat KCa2.2a [2] is > 100 µM.
Take “N^1-(3-Chloro-4-fluorophenyl)-2-(3,5-dimethyl-1H-pyrazol-1-yl)pyrimidine-4,6-diamine [Compound 4]”: on rat KCa2.2a [2], the “activity / potency on KCa2.2a channels” value is listed as “reduced potency”, the EC50 is 6.59 ± 0.64 µM and the “efficacy (Emax) on KCa2.2a channels” value is “retaining their efficacy”.

The values above are taken from patent US12312333B2, “SK channel positive allosteric modulators” (Chapman University, priority 2021, dated 2025).
